Results on six compounds are retold here after patent US5541161A, “Stabilized sulfonate, sulfate, phosphonate and phosphate derivatives of hirudin” (Merrell Pharmaceuticals Inc., priority 1993, dated 1996).

Read-outs that look alike come from different tables or passages of the source. Numbered stars: 1 amine (or outer) side, 2 acyl side, 3 side chain; on linkers, the order of the positions; unused ones are H or OH. Suc = O=C(CCC(=O)[*:2])[*:1]; Pnh(SO3) = not defined here Some results are limits rather than exact numbers.

The target in the experiment is thrombin (Homo sapiens, UniProt P00734). Kind of experiment: Fibrin-Clot Assay. Type of experiment: biochemical.
[1] abbreviates: read-out: IC50 Fibrin-Clot Assay.
[2] abbreviates: read-out: IC50 Fibrin-Clot Assay (class symbol).

For orientation: IC50 means the concentration needed to halve the response being measured. As to `CC[C@H](C)[C@H](NC(=O)[C@@H]1CCCN1C(=O)[C@H](CCC(=O)O)NC(=O)[C@H](Cc1ccc(OS(=O)(=O)O)cc1)NC(=O)CCC(=O)O)C(=O)N1CCC[C@H]1C(=O)N[C@@H](CCC(=O)O)C(=O)N[C@@H](CCC(=O)O)C(=O)N[C@@H](C)C(=O)N[C@@H](Cc1ccc(NS(=O)(=O)O)cc1)C(=O)N[C@H](CCC(=O)O)C(=O)O` [Example 2, Suc-TVr(SO3 H)-Glu-Pro-Ile-Pro-Glu-Glu-Ala-Phe(pNHSO3 H)-D-Glu-OH], the IC50 under setting [1] came out at 15 µM and the half-maximal inhibitory concentration (IC50) under setting [2] is less than 25 µM.
For the compound `CC[C@H](C)[C@H](NC(=O)[C@@H]1CCCN1C(=O)[C@H](CCC(=O)O)NC(=O)[C@H](Cc1ccc(NS(=O)(=O)O)cc1)NC(=O)CCC(=O)O)C(=O)N1CCC[C@H]1C(=O)N[C@@H](CCC(=O)O)C(=O)N[C@@H](CCC(=O)O)C(=O)N[C@@H](C)C(=O)N[C@@H](CC1CCCCC1)C(=O)N[C@H](CCC(=O)O)C(=O)O` [Example 4, Suc-Phe(pNHSO3 H)-Glu-Pro-Ile-Pro-Glu-Glu-Ala-Cha-D-Glu-OH], the IC50 under setting [1] was 13 µM and the IC50 under setting [2] is less than 25 µM.
As for `CC[C@H](C)[C@H](NC(=O)[C@@H]1CCCN1C(=O)[C@H](COS(=O)(=O)O)NC(=O)[C@H](Cc1ccc(O)cc1)NC(=O)CCC(=O)O)C(=O)N1CCC[C@H]1C(=O)N[C@@H](COS(=O)(=O)O)C(=O)N[C@@H](COS(=O)(=O)O)C(=O)N[C@@H](C)C(=O)N[C@@H](CC1CCCCC1)C(=O)N[C@@H](COS(=O)(=O)O)C(=O)O` [Example 8, Suc-Tyr-Ser(SO3 H)-Pro-Ile-Pro-Ser(SO3 H)-Ser(SO3 H)-Ala-Cha-Ser(SO3 H)-OH], the IC50 is 0.21 µM under setting [1] and less than 5 µM under setting [2].
For “Suc-Tyr(SO3 H)-Glu-Pro-Ile-Pro-Glu-Glu-Ala-Cha-D-Glu-OH [Example 5]”, the IC50 under setting [1] is 1.7 µM and the IC50 under setting [2] is less than 5 µM.
On to “Suc-Tyr-Glu-Pro-Ile-Pro-Glu-Glu-Phe(pNHSO3 H)-D-Glu-OH [Example 3]”, for which the IC50 under setting [1] amounted to 0.12 µM.
With “Suc-Tyr-Pro-Ile-Pro-Glu-Glu-Ala-Pnh(SO3)-D-Glu-OH (Suc-YPIPEEA-{Pnh(SO3)-dE-OH}; reading uncertain; also: printed as Suc-Tyr-Pro-Ile-Pro-Glu-Glu-Ala-Pnh(SO3)-D-Glu-OH) [Example 1]”, the concentration for half-maximal inhibition (IC50) is 2.5 µM under setting [1] and less than 5 µM under setting [2].
